Results as given in article PMC12406192, “Sustainable Joullié–Ugi and Continuous Flow Implementation Led to Novel Captopril-Inspired Broad-Spectrum Metallo-β-Lactamase Inhibitors” (Journal of Medicinal Chemistry, 2025).
Marks after values point to notes of the source that are not given here.

What was measured:
NDM-1 [1] = biological target: T1, NDM-1 (Klebsiella pneumoniae, UniProt C7C422); test: Kinetic fluorescence-based in vitro assay with fluorocillin substrate (IC50); format: biochemical; conditions: 30 min preincubation
T1 construct: made in house; host or cells: E. coli
T1 sequence (C7C422 29-270 limits assumed): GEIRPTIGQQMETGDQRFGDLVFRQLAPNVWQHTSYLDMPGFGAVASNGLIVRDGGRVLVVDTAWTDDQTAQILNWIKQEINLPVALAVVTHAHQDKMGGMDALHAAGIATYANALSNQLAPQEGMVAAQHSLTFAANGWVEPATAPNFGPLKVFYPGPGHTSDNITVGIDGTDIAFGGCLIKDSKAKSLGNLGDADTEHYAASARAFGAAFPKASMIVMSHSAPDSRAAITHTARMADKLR
Description: (§1) IC50 values were determined in a kinetic fluorescence-based in vitro assay as described previously. All compounds were preincubated with the recombinant protein for 30 min before addition of the fluorogenic substrate fluorocillin. , The inhibitory activity was also determined (expressed as the percentage of inhibition in the presence of 50 μM compound) using a spectrophotometric assay in which the hydrolysis of imipenem (the reporter substrate) was monitored (see Section for details).
(§2) The inhibitory activity of the compounds was determined using enzyme assays with recombinant NDM-1, VIM-1, VIM-2, IMP-1, and IMP-7. These enzymes were produced in E. coli and purified as previously described. , The fluorogenic substrate fluorocillin was synthesized according to the procedure described by Rukavishnikov et al. The assays were performed in 96-well format using black polystyrene plates (Corning, Corning, NY) at room temperature, and the measurements were carried out on the Tecan spectrophotometer Infinite F200 PRO (Tecan, Männedorf, Switzerland). The protein stock solutions were diluted in assay buffer (HEPES 50 mM, pH 7.5 containing 0.01%Triton X-100, buffer HX) to reach final concentrations of VIM-1–4 nM, IMP-7–0.1 nM; NDM-1–3 nM. Subsequently, 89 μL of the protein solution was mixed with 1 μL of the inhibitor diluted in DMSO (final DMSO concentration 1% at final assay volume of 100 μL) and incubated for 30 min. […] Negative controls were measured in the absence of enzyme (89 μL of assay buffer), whereas the positive controls were measured in the presence of enzyme and in the absence of inhibitors (1 μL of DMSO). Each measurement was performed in triplicate in three independent experiments. IC50 values were calculated using data obtained from measurements with at least eight different inhibitor concentrations, applying a sigmoidal dose–response (variable slope with four parameters) equation using GraphPad Prism 5 (GraphPad Software, La Jolla, CA) software. […] All assays were performed in at least in triplicate.

[2] = Chemical stability of the compounds; format: physicochemical
[3] = tested on: A. baumannii AC-54/97 (bla IMP‑2 +); test: Imipenem MIC, broth microdilution, with fixed concentration of compound; format: cell-based; conditions: compound at 32 μg/mL; median of three experiments
Description: (§3) In vitro antimicrobial susceptibility testing was performed according to established standards. […] The strains used in the study were described elsewhere.

[4] = tested on: K. pneumoniae T2216 (bla VIM‑1 +); test: as above; format: cell-based; conditions: compound at 128 μg/mL; median of three experiments
Description: as §3

[5] = tested on: P. aeruginosa T2325 (bla IMP‑1 +); test: as above; format: cell-based; conditions: compound at 128 μg/mL; median of three experiments
Description: as §3

[6] = tested on: K. pneumoniae VA-416/02 (bla VIM‑4 +); test: as above; format: cell-based; conditions: compound at 32 μg/mL; median of three experiments
Description: as §3

[7] = tested on: K. pneumoniae 7023 (bla VIM‑1 +); test: as above; format: cell-based; conditions: compound at 32 μg/mL; median of three experiments
Description: as §3

[8] = tested on: E. coli SI–N003 (bla NDM‑7 +); format: cell-based; conditions: compound at 32 μg/mL; median of three experiments
Description: as §3

[9] = tested on: E. coli SI-G001 (bla NDM‑4 +); format: cell-based; conditions: compound at 32 μg/mL; median of three experiments
Description: as §3

VIM-1 = biological target: T2, VIM-1 (Pseudomonas aeruginosa, UniProt A0A0F7KYQ8); test: Kinetic fluorescence-based in vitro assay with fluorocillin substrate (IC50); format: biochemical
T2 construct: made in house; host or cells: E. coli
Description: as §1, §2

IMP-7 = IMP-7 (Pseudomonas aeruginosa, UniProt Q93AU3); test: as above; format: biochemical; conditions: 30 min preincubation
IMP-7, sequence (Q93AU3 entry or part of it): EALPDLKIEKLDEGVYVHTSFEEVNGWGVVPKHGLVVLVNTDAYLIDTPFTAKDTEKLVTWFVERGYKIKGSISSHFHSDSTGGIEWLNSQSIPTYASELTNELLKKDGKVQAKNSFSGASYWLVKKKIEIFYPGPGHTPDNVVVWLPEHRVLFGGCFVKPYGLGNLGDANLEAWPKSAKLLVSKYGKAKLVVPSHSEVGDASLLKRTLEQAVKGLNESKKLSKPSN
Description: as §1, §2

NDM-1 [10] = biological target: T1, NDM-1; test: Spectrophotometric direct competition assay, imipenem hydrolysis (reporter substrate); format: biochemical; conditions: read-out: percentage of inhibition NDM-1
Description: as §1, §2

[11] = tested on: E. coli SI-M001 (bla NDM‑1 +); test: Imipenem MIC, broth microdilution, with fixed concentration of compound; format: cell-based; conditions: compound at 32 μg/mL; median of three experiments
Description: (§4) In vitro antimicrobial susceptibility testing was performed according to established standards. […]. The strains used in the study were described elsewhere.

[12] = tested on: K. pneumoniae T2301 (bla NDM‑1 +); test: as above; format: cell-based; conditions: compound at 128 μg/mL; median of three experiments
Description: as §4

IMP-1 = biological target: T3, IMP-1 (Serratia marcescens, UniProt P52699); test: biochemical; conditions: read-out: percentage of inhibition IMP-1
T3 construct: made in house; host or cells: E. coli
T3 sequence (P52699 19-246, looked up, species assumed): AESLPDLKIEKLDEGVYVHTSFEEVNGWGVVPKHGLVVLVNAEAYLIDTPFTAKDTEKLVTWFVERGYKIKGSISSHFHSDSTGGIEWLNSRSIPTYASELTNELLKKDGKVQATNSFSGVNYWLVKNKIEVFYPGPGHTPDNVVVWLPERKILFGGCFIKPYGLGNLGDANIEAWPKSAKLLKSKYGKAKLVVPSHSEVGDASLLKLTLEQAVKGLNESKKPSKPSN
Description: as §1, §2

VIM-2 = biological target: T4, VIM-2 (Escherichia coli, UniProt Q5U7L7); test: biochemical; conditions: read-out: percentage of inhibition VIM-2
T4 construct: made in house; host or cells: E. coli
Description: as §1, §2

[13] = tested on: S. marcescens SI-1591 (bla VIM‑2 +); test: microbe, parasite or virus in culture; format: cell-based; conditions: compound at 32 μg/mL; median of three experiments
Description: as §3

## C[C@H](CS)C(=O)N1c2ccccc2C(C)(C)[C@H]1C(N)=O [6a, (S)-1-((S)-3-Mercapto-2-methylpropanoyl)-3,3-dimethylindoline-2-carboxamide]
NDM-1 [1]
  IC50: 17.9 µM
[2]
  chemical stability (in words): not very stable

## C[C@H](CS)C(=O)N1c2ccccc2C(C)(C)[C@@H]1C(=O)NCC(=O)O [7b, ((R)-1-((S)-3-Mercapto-2-methylpropanoyl)-3,3-dimethylindoline-2-carbonyl)glycine]
[3]
  imipenem MIC, A. baumannii AC-54/97 (bla IMP‑2 +): 128 µg/mL
[4]
  imipenem MIC, K. pneumoniae T2216 (bla VIM‑1 +): 4 ^c μg/mL
[5]
  imipenem MIC, P. aeruginosa T2325 (bla IMP‑1 +): 32 ^c μg/mL
[6]
  imipenem MIC, K. pneumoniae VA-416/02 (bla VIM‑4 +): 128 µg/mL
[7]
  imipenem MIC, K. pneumoniae 7023 (bla VIM‑1 +): 128 µg/mL
[8]
  imipenem MIC, E. coli SI–N003 (bla NDM‑7 +): 64 µg/mL
[9]
  imipenem MIC, E. coli SI-G001 (bla NDM‑4 +): 64 µg/mL
NDM-1 [1]
  IC50: 8 µM
VIM-1
  IC50: 7.4 µM
IMP-7
  IC50: 8.6 µM
NDM-1 [10]
  inhibition at 50 µM: 74%
[11]
  imipenem MIC, E. coli SI-M001 (bla NDM‑1 +): 64 µg/mL
[12]
  imipenem MIC, K. pneumoniae T2301 (bla NDM‑1 +): 8 ^c μg/mL
IMP-1
  inhibition at 50 µM: 13%
VIM-2
  inhibition at 50 µM: 58%
[13]
  imipenem MIC, S. marcescens SI-1591 (bla VIM‑2 +): 16 µg/mL

## C[C@H](CS)C(=O)N1c2ccccc2C(C)(C)[C@@H]1C(N)=O [6b, (R)-1-((S)-3-Mercapto-2-methylpropanoyl)-3,3-dimethylindoline-2-carboxamide]
[4]
  imipenem MIC, K. pneumoniae T2216 (bla VIM‑1 +): 4 ^c μg/mL
[5]
  imipenem MIC, P. aeruginosa T2325 (bla IMP‑1 +): 64 ^c μg/mL
NDM-1 [1]
  IC50: 4.1 µM
VIM-1
  IC50: 0.7 µM
IMP-7
  IC50: 1.8 µM
[2]
  chemical stability (in words): lower chemical stability
[12]
  imipenem MIC, K. pneumoniae T2301 (bla NDM‑1 +): 16 ^c μg/mL
